The record followed here is patent publication US5281603A, “Angiotensin II receptor blocking 2,3,6 substituted quinazolinones” (American Cyanamid Company, priority 1993, dated 1994).

The target of this test is T1, Angiotensin II Receptor (Bos taurus, UniProt P25104).
T1 construct: The brownish tissue forming the adrenal cortex is scraped off and finely minced with scissors before homogenization; from tissue; host or cells: beef adrenal cortex, microsomal membranes (100,000×g pellet)
T1 sequence (P25104 1-359): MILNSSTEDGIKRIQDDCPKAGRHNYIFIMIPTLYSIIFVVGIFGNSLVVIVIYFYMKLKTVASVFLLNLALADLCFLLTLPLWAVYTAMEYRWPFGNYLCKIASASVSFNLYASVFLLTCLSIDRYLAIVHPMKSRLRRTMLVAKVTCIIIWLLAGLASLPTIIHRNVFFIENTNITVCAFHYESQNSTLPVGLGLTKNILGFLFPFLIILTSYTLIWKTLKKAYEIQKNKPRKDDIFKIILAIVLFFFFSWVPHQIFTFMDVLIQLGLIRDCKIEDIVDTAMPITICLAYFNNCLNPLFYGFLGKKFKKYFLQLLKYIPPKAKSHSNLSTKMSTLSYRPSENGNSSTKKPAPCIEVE
Description: Angiotensin II Receptor Binding: displacement of [^125 I](Sar^1,Ile^8)AngII from beef adrenal cortex membranes. Set-up: species or system beef (bovine). The conditions noted are these: radioligand; non-specific binding with 1.0 uM unlabeled (Sar^1,Ile^8)AngII. The source says:
Beef adrenals are obtained from a local slaughter house (Maxwell-Cohen). [^125 I](Sar^1,Ile^8)AngII, S.A. 2200 Ci/mmole, is purchased from Dupont (NEN®, Boston, Mass.). All unlabeled AngII analogs, Dimethylsulfoxide (DMSO), nucleotides, bovine serum albumin (BSA) are purchased from Sigma Chemical Co., St. Louis, Mo. U.S.A.
Approximately sixteen (16) to twenty (20) beef adrenal glands are processed as follows: fresh adrenal glands received on crushed ice are cleaned of fatty tissues and the tough membranes encapsulating the glands are removed and discarded. The brownish tissue forming the adrenal cortex is scraped off and finely minced with scissors before homogenization. Care is taken to avoid contamination with medullary tissue during dissection. The scraped cortices are suspended in twenty volumes of an ice-cold buffer medium consisting of 10 mM Tris.HCl (pH 7.4 at 22° C.) and containing 1.0 mM EDTA and 0.2M sucrose. Unless otherwise indicated, all subsequent operations are done at 4° C. […] The homogenate is centrifuged first at low speed (3,000×g) for 10 min. […] This P2 pellet is discarded and the liquid phase is carefully decanted off in clean centrifuge tubes and recentrifuged at high speed (100,000×g) for 60 min. The translucent final pellet is harvested and combined in a small volume (20-50.0 ml) of 50.0 mM Tris.HCl buffer, pH 7.2. […] The pelleted membrane is reconstituted in 50.0 mM Tris.HCl buffer containing 0.1 mM of phenylmethylsulfonyl fluoride (PMSF) to give approximately a protein concentration of 2.5 mg per ml of tissue suspension. The membrane preparation is finally aliquoted in 1.0 ml volumes and stored at -70° C. until use in the binding assays. […]
The wells are left undisturbed for 60 min. at room temperature. […] The filters are removed from the filter grid and counted in a Parkard® Cobra Gamma Counter for 1 min. […] The binding data are analyzed by the non-linear interactive "LUNDON-1" program (LUNDON SOFTWARE Inc., Cleveland, Ohio U.S.A.).

For “[^125 I](Sar^1,Ile^8)AngII [reference compound]”, the Specific binding entry is reported as “greater than 90%”.
